Results on one compound are retold here after patent US20150190369A1, “QUERCETIN-3-GLUCOSIDE AND USES THEREOF” (priority 2012, published 2015).

One assay relates to PCSK9. Description: Pulse-chase metabolic labeling and immunoprecipitation of PCSK9-related proteins in Huh7 cells. In kind it is cell-based, human. The conditions noted are these: Huh7 pre-incubated 24 h with 5 μM Q3G. How it is done: For metabolic labeling, Huh7 cells were seeded in a 12-well plate 8×10^5 cells/well in 1.5 ml/well of complete medium and incubated overnight. After a rinse with Dulbecco's PBS (PBS-D), cell monolayers were overlaid with 1.5 ml of DMEM/10% LPDS without or with 5 μM Q3G, and were incubated for 24 h. Fresh serum-free medium (SFM, 1.5 ml) was substituted, and cells were allowed to incubate for 30 min to reduce endogenous Met and Cys. The medium was removed and replaced with fresh SFM (0.75 ml/well) containing 300 μCi/ml^35S-Met/Cys, and cells were incubated at 37° C. for 20 min to label de novo biosynthesized proteins (pulse-labeling). The radioactive medium was replaced with DMEM/0.5% LPDS containing 10 mM non-radioactive Met/Cys and cells were incubated at 37° C. for 0, 15, 30, 60, 90 and 120 min (chase). Conditioned media and cell lysates were processed as described above.
Radioactive conditioned media or cell lysates (0.1 ml) were supplemented with […] of normal rabbit serum and 15 μl of a 50% (w/v) suspension of Protein A-agarose. After a 1-h incubation at 4° C. with rotational mixing, the samples were centrifuged at 3,000 g for 5 min at 4° C. Supernatants were supplemented 2 μl of rabbit anti-PCSK9 [35], and incubated as above. […] Specific radioactive protein bands were visualized and quantified on a Typhoon Phosphorimager (Molecular Dynamics). […]

Another assay concerns SREBP-2. Description: Immunoblotting for SREBP-2-related proteins (proSREBP-2 proteolytic activation) in Huh7 cells. It is filed as cell-based, human. The conditions noted are these: Huh7, 24 h, 5 μM Q3G, normalized for β-actin. How it is done: FIGS. 9A and 9B are graphs illustrating the proSREBPs-2 mRNA and SREBP-2-related protein levels for cells exposed to Q3G. Cells were incubated for 24 h in medium 5 μM Q3G. FIG. 9A illustrates the results for quantitative RT-PCR for proSREBPs-2 mRNA levels. Values are the means of triplicate experiments±SEM. FIG. 9B illustrates the results for semi-quantitative immunoblotting for cellular SREBP-2-related protein. […]
At passage, Huh7 cells were routinely seeded at sub-confluence (˜10^6 cells/10-cm dish) in Dulbecco's modified Eagle's medium (DMEM) containing 10% fetal bovine serum (FBS) or LPDS (for experiments) and 50 μg/ml gentamycin. They were incubated overnight at 37° C., in a humidified 5% CO2-95% air atmosphere. Cells were treated or not with Q3G at defined concentrations and for defined lengths of time. Media were collected and centrifuged at 200 g for 5 min to sediment suspended cells; supernatants were collected and supplemented with 0.33 volumes of a 3×-concentrated PIC. […]
Cell lysates were fractionated by SDS-PAGE and electrophoretically transferred onto a polyvinylidene fluoride membrane. […] The signal was captured on X-ray film and immunoreactive bands analyzed by densitometry on a Syngene's ChemiGenius^2XE Bio Imaging System (Cambridge, Mass.) within the dynamic range of the instrument. […]

Structures are written as SMILES.

For `O=c1c(O[C@@H]2O[C@H](CO)[C@@H](O)[C@H](O)[C@H]2O)c(-c2ccc(O)c(O)c2)oc2cc(O)cc(O)c12` [Q3G, quercetin-3-O-β-D-glucoside], in the assay with PCSK9, the “rate of intracellular proPCSK9 precursor processing versus untreated cells” value is recorded as “no obvious difference”. The “time to half-maximum accumulation of PCSK9 in culture media (percent of total PCSK9 proteins)” value with PCSK9 (control cells 60 min) was determined as 90 min. Also, the “increase of ratio of 65-kDa nuclear SREBP-2 over its 148-kDa ER precursor” value in the assay with SREBP-2 is “up to 4 fold”.
